# Like-named read-outs stand apart in the source and are kept apart here. Marks after values point to notes of the source that are not given here.
# Tests used:
# [1] = system: S. aureus ATCC strain 43300; assay: microbe, parasite or virus in culture; type: cell-based, Staphylococcus aureus; settings: for MIC Sa43300: Table 12, wild-type strain
# E. coli NR698 = type: cell-based, Escherichia coli
# E. coli (ATCC 25922) = assay: E. coli MIC, microdilution broth assay; type: cell-based, Escherichia coli
# Experimental: Minimum inhibitory concentrations were determined using E. coli (ATCC 25922) and the microdilution broth assay with an inoculum of […] CFU/mL in Isosensitest Broth (Oxoid).
# S. aureus (Sa) DHFR = S. aureus (Sa) DHFR (Staphylococcus aureus, UniProt P0A017); type: biochemical; settings: Table 2
# E. coli (Ec) DHFR = E. coli (Ec) DHFR (Escherichia coli (strain K12), UniProt P0ABQ4); assay: E. coli DHFR enzyme inhibition (NADPH oxidation, 340 nm); type: biochemical
# MtbDHFR = MtbDHFR (Mycobacterium tuberculosis (strain ATCC 25618 / H37Rv), UniProt P9WNX1); assay: M. tuberculosis DHFR enzyme inhibition; type: biochemical
# Mtb = assay: M. tuberculosis MIC, microtiter broth dilution (Table 6); type: cell-based, Mycobacterium tuberculosis
# Experimental: (§1) (provided by Leonid Heifets).
# (§2) Each isolate was tested in duplicate.
# CYP2D6 = CYP2D6 (Homo sapiens (Human), UniProt P10635); assay: Cytochrome P450 inhibition, CYP2D6
# Mtb 5 = type: cell-based, Mycobacterium tuberculosis; settings: XDR strain
# Mtb 56 = type: cell-based, Mycobacterium tuberculosis; settings: MDR strain
# [2] = Microsomal stability assay (UPLC of parent compound)
# Mtb 276 = type: cell-based, Mycobacterium tuberculosis; settings: MDR strain
# Mtb 365 = type: cell-based, Mycobacterium tuberculosis; settings: MDR strain
# Mtb 352 = type: cell-based, Mycobacterium tuberculosis; settings: MDR strain
# Mtb C-31 = type: cell-based, Mycobacterium tuberculosis; settings: MDR strain
# Mtb Erdman = Mtb Erdman MIC, microtiter broth dilution; type: cell-based, Mycobacterium tuberculosis
# Experimental: as §1, §2
# CYP3A4 = CYP3A4 (Homo sapiens (Human), UniProt P08684); assay: Cytochrome P450 inhibition, CYP3A4
smiles,measurement,setting,value
"CCc1nc(N)nc(N)c1C#CC(C)c1cc(-c2ccncc2)ccc1OC (racemic) [C, reference compound]",MIC Sa(H30N),Sa(H30N) strain,2.5 µg/mL
same,MIC Sa43300,[1],0.625 µg/mL
CCc1nc(N)nc(N)c1C#CCc1cc(-c2ccccc2C(=O)O)ccc1OC [Compound 13],MIC E. coli NR698,E. coli NR698; Table 2,20 µg/mL
same,MIC E. coli 25922,"E. coli (ATCC 25922); Table 2, wild-type E. coli",>32 µg/mL
same,MIC S. aureus 43300,[1],>20 µg/mL
same,IC50,S. aureus (Sa) DHFR,0.359 µM
same,IC50,E. coli (Ec) DHFR; Table 2,0.195 µM
CCc1nc(N)nc(N)c1C#CCc1cc(-c2ccccc2C(=O)O)ccc1OC [Compound 14],MIC E. coli NR698,E. coli NR698; Table 2,0.0391 µg/mL
same,MIC E. coli 25922,"E. coli (ATCC 25922); Table 2, wild-type E. coli",>20 µg/mL
same,MIC S. aureus 43300,[1],0.625 µg/mL
same,IC50,MtbDHFR,0.311 µM
same,IC50,S. aureus (Sa) DHFR,0.157 µM
same,IC50,E. coli (Ec) DHFR; Table 2,0.526 µM
same,MIC Mtb,Mtb,1 µg/mL
CCc1nc(N)nc(N)c1C#CCc1cc(-c2ccc(C(=O)O)cc2)ccc1OC [Compound 15],MIC E. coli NR698,E. coli NR698; Table 2,0.0098 µg/mL
same,MIC Sa(H30N),Sa(H30N) strain,0.1563 µg/mL
same,concentration required for inhibition of CYP2D6,CYP2D6,greater than 50 μM
same,MIC Mtb 5,Mtb 5,8 µg/mL
same,MIC Mtb56,Mtb 56,16 µg/mL
same,phase I half-life,[2]; phase I,1.65 h
same,phase II half-life,[2]; phase II,approximately 87 min
same,MIC E. coli 25922,"E. coli (ATCC 25922); Table 2, wild-type E. coli",>20 µg/mL
same,MIC S. aureus 43300,[1],0.0195 µg/mL
same,MIC Sa43300,[1],0.0195 µg/mL
same,MIC Mtb 276,Mtb 276,16 µg/mL
same,MIC Mtb 365,Mtb 365,4 µg/mL
same,IC50,MtbDHFR,0.173 µM
same,IC50,S. aureus (Sa) DHFR,0.032 µM
same,MIC Mtb 352,Mtb 352,16 µg/mL
same,IC50,E. coli (Ec) DHFR; Table 2,0.09 µM
same,MIC Mtb,Mtb,4 µg/mL
same,MIC Mtb C-31,Mtb C-31,>32 µg/mL
same,MIC Mtb Erdman,Mtb Erdman,16 µg/mL
same,concentration required for inhibition of CYP3A4,CYP3A4,greater than 50 μM
CCc1nc(N)nc(N)c1C#CCc1cc(OC)cc(-c2ccc(C(=O)O)cc2)c1 [Compound 16],MIC E. coli NR698,E. coli NR698; Table 2,0.0049 µg/mL
same,MIC Sa(H30N),Sa(H30N) strain,0.1563 µg/mL
same,MIC E. coli 25922,"E. coli (ATCC 25922); Table 2, wild-type E. coli",>20 µg/mL
same,MIC S. aureus 43300,[1],0.0195 µg/mL
same,MIC Sa43300,[1],0.0195 µg/mL
same,IC50,E. coli (Ec) DHFR; Table 2,0.507 µM
CCc1nc(N)nc(N)c1C#C[C@@H](C)c1cc(-c2ccc(C(=O)O)cc2)ccc1OC [Compound 30],MIC E. coli NR698,E. coli NR698; Table 2,0.0012 µg/mL
same,MIC E. coli 25922,"E. coli (ATCC 25922); Table 2, wild-type E. coli",20 µg/mL
same,MIC S. aureus 43300,[1],0.0195 µg/mL
CCc1nc(N)nc(N)c1C#C[C@H](C)c1cc(OC)cc(-c2ccc(C(=O)O)cc2)c1 [Compound 31],MIC E. coli NR698,E. coli NR698; Table 2,0.0024 µg/mL
same,MIC Sa(H30N),Sa(H30N) strain,0.0781 µg/mL
same,MIC E. coli 25922,"E. coli (ATCC 25922); Table 2, wild-type E. coli",10 µg/mL
same,MIC S. aureus 43300,[1],0.0098 µg/mL
same,MIC Sa43300,[1],0.0098 µg/mL
CCc1nc(N)nc(N)c1C#C[C@@H](C)c1cc(OC)cc(-c2ccc(C(=O)O)cc2)c1 [Compound 32],MIC E. coli NR698,E. coli NR698; Table 2,0.0024 µg/mL
same,MIC Sa(H30N),Sa(H30N) strain,0.0781 µg/mL
same,MIC E. coli 25922,"E. coli (ATCC 25922); Table 2, wild-type E. coli",10 µg/mL
same,MIC S. aureus 43300,[1],0.0098 µg/mL
same,MIC Sa43300,[1],0.0098 µg/mL
CCc1nc(N)nc(N)c1C#C[C@H](C)c1cc(-c2ccc(C(=O)OC)cc2)ccc1OC [Compound 33],MIC E. coli NR698,E. coli NR698; Table 2,0.156 µg/mL
same,MIC E. coli 25922,"E. coli (ATCC 25922); Table 2, wild-type E. coli",>20* μg/mL
same,MIC S. aureus 43300,[1]; Table 2,0.625 µg/mL
same,IC50,S. aureus (Sa) DHFR,0.022 µM
same,IC50,E. coli (Ec) DHFR; Table 2,0.034 µM
CCc1nc(N)nc(N)c1C#C[C@@H](C)c1cc(-c2ccc(C(=O)OC)cc2)ccc1OC [Compound 34],MIC E. coli NR698,E. coli NR698; Table 2,1.875 µg/mL
same,MIC E. coli 25922,"E. coli (ATCC 25922); Table 2, wild-type E. coli",>20* μg/mL
same,MIC S. aureus 43300,[1]; Table 2,10 µg/mL
same,IC50,S. aureus (Sa) DHFR,0.205 µM
same,IC50,E. coli (Ec) DHFR; Table 2,0.172 µM
CCc1nc(N)nc(N)c1C#CCc1cc2c(c(-c3ccc(O)cc3)c1)OCO2 [Compound 37],MIC E. coli NR698,E. coli NR698; Table 3,0.002 µg/mL
same,MIC E. coli 25922,E. coli (ATCC 25922); Table 3,0.625 µg/mL
same,IC50,E. coli (Ec) DHFR; Table 3,2.5 µM
CCc1nc(N)nc(N)c1C#CCc1cc2c(c(-c3ccc(O)c(F)c3)c1)OCO2 [Compound 38],MIC E. coli NR698,E. coli NR698; Table 3,0.001 µg/mL
same,MIC E. coli 25922,E. coli (ATCC 25922); Table 3,0.625 µg/mL
same,IC50,E. coli (Ec) DHFR; Table 3,1.25 µM
CCc1nc(N)nc(N)c1C#CCc1cc2c(c(-c3cc(F)c(O)c(F)c3)c1)OCO2 [Compound 39],MIC E. coli NR698,E. coli NR698; Table 3,0.001 µg/mL
same,MIC E. coli 25922,E. coli (ATCC 25922); Table 3,0.625 µg/mL
same,IC50,E. coli (Ec) DHFR; Table 3,0.625 µM
CCc1nc(N)nc(N)c1C#CCc1cc2c(c(-c3cc(F)c(OC)c(F)c3)c1)OCO2 [Compound 40],MIC E. coli NR698,E. coli NR698; Table 3,0.78 µg/mL
same,MIC E. coli 25922,E. coli (ATCC 25922); Table 3,5 µg/mL
same,IC50,E. coli (Ec) DHFR; Table 3,> 20 µM
